Experiments:
Type in all cases: in vivo
Parameters in all cases: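 grade 0 to 5 of growth suppression where 5 is 90% or more and 0 below 10%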
[1] = tested on: Monochoria vaginalis (Burm. f.) Presl var. plantaginea (Roxb.) Solms-Laub.; experiment: Herbicidal effects in paddy field soil treatment (Test Example 1); conditions: paddy field soil treatment; 1000 g of the active ingredient per hectare; wettable powder added dropwise on water surface; 21st day after treatment
Procedure: (§1) Test for Herbicidal Effects in Paddy Field Soil Treatment
(§2) A 100-cm^2 plastic pot was filled with paddy field soil. After puddling and leveling, seeds of Echinochloa oryzicola Vasing, Monochoria vaginalis (Burm. f.) Presl var. plantaginea (Roxb.) Solms-Laub., and Scirpus juncoides Roxb. var. ohwianus. T. Koyama were sowed, and the soil was waterlogged to a water depth of 3 cm. On the next day, a wettable powder formulation prepared according to Preparation Example 1 was diluted with water, and was added dropwise on the water surface. The amount of application was an amount equivalent to 1000 g of the active ingredient per hectare. Thereafter, the plants were grown in a greenhouse, and on the 21st day after the treatment, the herbicidal effects were investigated according to the criteria described in Table 138.

[2] = tested on: Scirpus juncoides Roxb. var. ohwianus. T. Koyama; experiment: as above; conditions: paddy field soil treatment; 1000 g of the active ingredient per hectare; wettable powder added dropwise on water surface; 21st day after treatment
Procedure: as §1, §2

[3] = tested on: Echinochloa oryzicola Vasing; experiment: as above; conditions: paddy field soil treatment; 1000 g of the active ingredient per hectare; wettable powder added dropwise on water surface; 21st day after treatment
Procedure: as §1, §2

Amaranthus viridis L. = experiment: Herbicidal effects in upland field soil treatment (Test Example 2); conditions: 1000 g active ingredient per hectare, 21st day after treatment, criteria of Table 138
Procedure: (§3) Test Example 2 Test on Herbicidal Effects in Upland Field Soil Treatment A 80-cm^2 plastic pot was filled with upland field soil. Seeds of Abutilon theophrasti medicus and Amaranthus viridis L. were sowed, and soil was covered. A wettable powder formulation prepared according to Preparation Example 1 was diluted with water, and was uniformly sprayed on the soil surface with a small sprayer, in an amount equivalent to 1000 liters per hectare, such that 1000 g of the active ingredient per hectare was applied. Thereafter, the plants were grown in a greenhouse, and on the 21st day after the treatment, the herbicidal effects were investigated according to the criteria described in the Table 138 shown above.

[4] = tested on: Abutilon theophrasti medicus; experiment: as above; conditions: 1000 g active ingredient per hectare, 21st day after treatment, criteria of Table 138
Procedure: as §3

| Compound | Herbicidal effects index, Monochoria vaginalis (Burm. f.) Presl var. plantaginea (Roxb.) Solms-Laub. [1] | Herbicidal effects index, Scirpus juncoides Roxb. var. ohwianus. T. Koyama [2] | Herbicidal effects index, Echinochloa oryzicola Vasing [3] | herbicidal effect (index) on Amaranthus viridis L. (Amaranthus viridis L.) | herbicidal effect (index) on Abutilon theophrasti medicus [4] |
| --- | --- | --- | --- | --- | --- |
| O=C1CCCC(O)=C1C(=O)c1nc2c(F)cccc2n(-c2ccc3c(c2)OCCO3)c1=O [II-236] | 5 | 5 | 4 | 5 | 4 |
| CSCn1c(=O)c(C(=O)C2=C(O)CCCC2=O)nc2cccnc21 [III-70] | 5 | 5 | 4 | 5 | 5 |
| O=C1CCCC(O)=C1C(=O)c1nc2ccccc2n(-c2ccc3c(c2)OCCCO3)c1=O [II-232] | 5 | 5 | 4 | 5 | 4 |
| COc1ccc(-n2c(=O)c(C(=O)C3=C(O)CCCC3=O)nc3ccccc32)c(F)c1 [II-174] | 5 | 5 | 5 | 5 | 4 |
| O=C1CCCC(O)=C1C(=O)c1nc2cccc(Cl)c2n(-c2ccccc2)c1=O [II-193] | 5 | 5 | 5 | 5 | 5 |
| COc1ccc(-n2c(=O)c(C(=O)C3=C(O)CCCC3=O)nc3c(F)cccc32)cn1 [I-279] | 5 | 5 | 4 | 5 | 5 |
| COc1ccc2nc(C(=O)C3=C(O)CCCC3=O)c(=O)n(C)c2c1 [I-238] | 4 | 5 | 5 | 4 | 5 |
| O=C1CCCC(O)=C1C(=O)c1nc2ccccc2n(COc2ccccc2)c1=O [I-57] | 5 | 5 | 4 | 5 | 4 |
| COc1ccc(-n2c(=O)c(C(=O)C3=C(O)CCCC3=O)nc3c(Cl)cccc32)cc1F [II-301] | 5 | 5 | 5 | 5 | 5 |
| Cc1ccc(-n2c(=O)c(C(=O)C3=C(O)CCCC3=O)nc3ccccc32)nc1 [I-178] | 5 | 5 | 4 | 5 | 5 |
| CC(C)c1cccc(-n2c(=O)c(C(=O)C3=C(O)CCCC3=O)nc3ccccc32)c1 [II-29] | 5 | 5 | 5 | 5 | 4 |
| CC1CC(C)C(O)=C(C(=O)c2nc3ccccc3n(-c3ccc4c(c3)OCCO4)c2=O)C1=O (centres unmarked) [II-229] | 5 | 5 | 5 | 5 | 4 |
| Cn1c(=O)c(C(=O)C2=C(O)CCCC2=O)nc2c(Cl)cccc21 [I-223] | 5 | 5 | 4 | 5 | 5 |
| CN(C(=O)OC(C)(C)C)n1c(=O)c(C(=O)C2=C(O)CCCC2=O)nc2ccccc21 [I-278] | 5 | 5 | 4 | 5 | 5 |
| O=C1CCCC(O)=C1C(=O)c1nc2cc(F)ccc2n(-c2ccc3c(c2)OCCO3)c1=O [II-240] | 5 | 5 | 4 | 5 | 5 |
| Cc1ccc(-n2c(=O)c(C(=O)C3=C(O)CCCC3=O)nc3ccc(C)cc32)nc1 [I-368] | 5 | 5 | 4 | 5 | 5 |
| COc1ccc(-n2c(=O)c(C(=O)C3=C(O)CCCC3=O)nc3ccccc32)cc1C [II-180] | 5 | 5 | 5 | 5 | 4 |
| CC(C)(C)c1cc(-n2c(=O)c(C(=O)C3=C(O)CCCC3=O)nc3ccccc32)no1 [I-265] | 5 | 5 | 4 | 5 | 4 |
| Cc1ccc(-n2c(=O)c(C(=O)C3=C(O)CCCC3=O)nc3ccccc32)cc1Cl [II-216] | 5 | 5 | 5 | 5 | 4 |
| COc1ccc(-n2c(=O)c(C(=O)C3=C(O)CCCC3=O)nc3c(C)cccc32)cc1 [II-245] | 5 | 5 | 5 | 5 | 5 |
| COc1ccc(-n2c(=O)c(C(=O)C3=C(O)CCCC3=O)nc3ccc(C)cc32)cc1 [II-247] | 5 | 5 | 4 | 5 | 5 |
| COc1ccc(-n2c(=O)c(C(=O)C3=C(O)CCCC3=O)nc3c(Cl)cccc32)cn1 [I-379] | 5 | 5 | 5 | 5 | 5 |
| O=C1CCCC(O)=C1C(=O)c1nc2ccccc2n(-c2ccc3c(c2)OCCO3)c1=O [I-209, 1-(2,3-dihydrobenzo[b]1,4-dioxin-6-yl)-3-(2-hydroxy-6-oxo-1-cyclohexenecarbonyl)-quinoxalin-2(1H)-one] | 5 | 5 | 4 | 5 | 4 |
| O=C1CCCC(O)=C1C(=O)c1nc2ccccc2n(-c2ccc3ccccc3c2)c1=O [I-264] | 5 | 5 | 4 | 5 | 4 |
| O=C1CCCC(O)=C1C(=O)c1nc2ccccc2n(-c2ccc(Cl)nn2)c1=O [I-273] | 5 | 5 | 5 | 5 | 5 |

From patent US8389523B2, “Substituted quinoxaline and an agrochemical composition thereof” (Kumiai Chemical Industry Co., Ltd., priority 2007, dated 2013)
